# Patent publication US20010053797A1 (priority 1998, published 2001)
# Entries after “also recorded” stand apart in the source; their conditions may differ.
# Legend:
# native NMDA receptor = target: T1, native NMDA receptor (Rattus norvegicus, UniProt P35439); conditions: cited from earlier work
# T1 construct: host or cells: cultured forebrain, cortical or retinal neurons (endogenous receptor)
# [1] = system: NMDA receptor-mediated neurotoxicity; conditions: cited from earlier work
# [2] = system: murine cortical cell cultures (neurons), NMDA receptor; experiment: NMDA neurotoxicity in murine cortical cell cultures, medium LDH; format: cell-based, Swiss Webster mice; conditions: for effect on potentiation of NMDA neurotoxicity by mercaptoethanol: NMDA plus 1 mM mercaptoethanol plus equimolar compound; for effect on NMDA neurotoxicity (neuronal death, medium LDH): compound added with low micromolar NMDA, 20-25 h
# Experimental: Cultures were incubated in 5% CO2 at 37° C.
# Experiments were conducted at 13-15 days in vitro.
# [3] = system: NR1-NR2B, -NR2C, or -NR2D receptors; conditions: millimolar concentrations of GSH; cited from earlier work
# [4] = system: murine cortical cell cultures (neurons), AMPA and kainate receptors; conditions: listed as reduced glutathione
# Experimental: After halothane anesthesia and cervical dislocation, cortical hemispheres were removed and incubated in 0.075% (wt/vol) acetylated trypsin (Sigma T-6763) for 1 h at 37° C. Tissue was dissociated by multiple passages through a narrow bore (flamed) Pasteur pipette, and the cell suspension was plated on confluent glial cultures at a density of 2.25-2.5 hemispheres per 24 well plate.
# Experiments were conducted at 13-15 days in vitro. Cultures were exposed to excitatory amino acids in serum-free MEM containing 10 mM glucose.
# Since astrocytes are not vulnerable to excitotoxic injury in this culture system (Choi D. W., Maulucci-Gedde M. and Kriegstein A. R. Glutamate neurotoxicity in cortical cell culture. J Neurosci 7: 357-368, 1987), the contribution of astrocytic LDH to the LDH signal is negligible.
# Differences between groups were assessed with the Tukey-Kramer or Dunnett post hoc tests.
# [5] = system: cultured cerebellar granule cells; conditions: cited from earlier work
# [6] = system: cortical neurons and glia; experiment: Chemical hypoxia (azide) and glucose deprivation in cortical cell cultures, medium LDH; format: cell-based, Swiss Webster mice; conditions: 3 mM azide 30 min with compound; LDH 21-25 h later
# Experimental: Primary cultures containing both cortical neurons and glia were prepared from gravid Swiss Webster mice as previously described. (Regan , R. F. and Choi, D. W., The effect of NMDA, AMPA/kainate, and calcium channel antagonists on traumatic cortical neuronal injury in culture, Brain Res, 633: 236-242, 1994). Plating medium consisted of Eagle's minimal essential medium (MEM), 5% equine serum, 5% fetal bovine serum, 2 mM glutamine, and 23 mM glucose. Cultures were incubated in 5% CO2 at 37° C. Two-thirds of the culture medium was exchanged twice weekly with MEM containing 10% equine serum, 2 mM glutamine, and 23 mM glucose. Glial cell division was inhibited at 4-7 days in vitro with 10^−5 M cytosine arabinoside.
# Chemical hypoxia was induced with 3 mM azide, which unlike cyanide is not volatile and has little effect on copper-zinc and manganese superoxide dismutases at low millimolar concentrations. (Misra, H. P. and Fridovich, I., Inhibition of superoxide dismutases by azide, Arch Biochem Biophys 189: 317-322, 1978). Experiments were conducted at 13-16 days in vitro in a glucose-free buffer containing 116 mM NaCl, 5.4 mM KCl, 1.8 mM CaCl2, 1 mM NaH2PO4, 26.2 mM NaHCO3, 0.8 mM MgSO4, and amino acids (MEM amino acids, Sigma Chemical Co., St. Louis, Mo., U.S.A.). After incubation for 30-90 min at 37° C. in 5% CO2, cultures were washed into MEM containing 10 mM glucose and were returned to the incubator.
# Cell death was estimated 21-25 h after azide exposure by inspection under phase-contrast microscopy, and was quantified by assaying lactate dehydrogenase (LDH) activity in the medium, as previously described. (Regan, R. F. and Panter, S. S., Traumatic neuronal injury in cortical cell culture is attenuated by 21-aminosteroids, Brain Res, 682: 144-150, 1995). Medium LDH in this culture system is an accurate marker of neuronal death that correlates well with cell counts. (Koh, J. Y. and Choi, D. W., Vulnerability of cultured cortical neurons to damage by excitotoxins: Differential susceptibility of neurons containing NADPH-diaphorase, J Neurosci 8: 2153-2163, 1988). […] (Koh, J. Y. and Choi, D. W., 1988). The LDH activity in the medium of sister cultures exposed to sham wash alone was subtracted from all values to obtain the LDH signal associated specifically with neurotoxin exposure.
# Data were analyzed by one-way analysis of variance. Differences between groups and a single mean were assessed with the Dunnett multiple comparisons test; when groups were compared to more than one mean, the Tukey-Kramer post hoc test was used.
# [7] = system: cortical neurons and glia; conditions: 10-100 μM, 30 min in MEM without azide
Compound,effect on native NMDA receptor responses (native NMDA receptor),effect on NMDA neurotoxicity [1],"LDH release ([2]; 8 μM NMDA plus GSH, scaled to 300 μM NMDA (=100)) [%]",effect on neuronal death at high NMDA concentration ([2]; 24 μM NMDA),effect on potentiation of NMDA neurotoxicity by mercaptoethanol [2],effect on potentiation of NMDA neurotoxicity by mercaptoethanol ([2]; listed as reduced glutathione),"effect on NMDA neurotoxicity (neuronal death, medium LDH) [2]","effect on NMDA neurotoxicity (neuronal death, medium LDH) ([2]; listed as glutathione)","effect on NMDA neurotoxicity (neuronal death, medium LDH) ([2]; listed as reduced glutathione)",effect on responses to glutamate (whole cell currents) [3],effect on neurotoxicity of kainic acid [4],basal 45Ca2+ influx [5],glutamate and NMDA-induced calcium influx [5],"effect on NMDA neurotoxicity (neuronal death, medium LDH) ([2]; listed as Mercaptoethanol)",effect on azide neurotoxicity in glucose-free buffer (neuronal death) [6],toxicity of compound alone [7]
"N[C@@H](CCC(=O)N[C@@H](CS)C(=O)NCC(=O)O)C(=O)O [GSH, glutathione]",no effect,attenuated NMDA neurotoxicity,61.09±3.83,not altered,did not further increase neuronal death; also recorded: tended to inhibit the effect of mercaptoethanol; also recorded: did not further enhance NMDA neurotoxicity,did not further increase NMDA-induced neuronal death,selectively potentiates NMDA neurotoxicity; also recorded: markedly potentiated; also recorded: specifically potentiated NMDA neurotoxicity; also recorded: selectively potentiate,marked potentiation,markedly enhanced; also recorded: markedly enhance the vulnerability,not,unaffected,did not alter,increased,,,
OCCS [mercaptoethanol],,,,,,,markedly enhanced,,,,,,,increased NMDA neurotoxicity to a degree comparable to that of glutathione,potentiate; also recorded: concentration-toxicity profile that was similar to GSH,nontoxic
